Test [1] relates to P. aeruginosa. The test is described as follows: Traditional culture-based antimicrobial susceptibility test. The test is classed as cell-based, Pseudomonas aeruginosa. The conditions noted are these: P. aeruginosa isolate MRSN1938. On the procedure: Table 5 illustrates the results of an example antimicrobial agent susceptibility test of the current application versus a traditional culture-based antimicrobial agent susceptibility test for multiple specimens with different pathogens, in accordance with one or more embodiments of the disclosure. These specimens were tested with direct PCR (e.g., no extraction DNA purification step prior to PCR). As in Tables 1, 2, and 3, the results of the test of the current application are similar to the results from the traditional test.
Result Reporting to Healthcare Providers. The results from the antimicrobial exposure are reported to the ordering healthcare provider. This information can be utilized by the healthcare provider when selecting an antimicrobial regimen for their individual patient based on these individual specimen results and patient specific factors. […] The current standard of care for antimicrobial susceptibility testing involves the growth, isolation, and exposure of pathogens to antimicrobials. This traditional culture and sensitivity process can take multiple days to obtain results, limiting the ability of healthcare providers to receive timely results to make actionable changes in patient care or management. Healthcare providers desire a method to obtain antimicrobial susceptibility results with quicker turn-around-time. This application discloses a molecular-based phenotypic antimicrobial susceptibility method which involves pathogen exposure to a panel of antimicrobial agents at their specified minimum inhibitory concentration breakpoints for sensitivity. This method allows for more timely antimicrobial susceptibility results.

Test [2] relates to Escherichia coli. The test is described as above. It is filed as cell-based. From the text:
Table 3 illustrates the results of an example antimicrobial agent susceptibility test of the current application versus a traditional culture-based antimicrobial agent susceptibility test for multiple Escherichia coli isolates, in accordance with one or more embodiments of the disclosure. These specimens underwent extraction or DNA purification prior to PCR. As in Tables 1 and 2, the results of the test of the current application are similar to the results from the traditional test. […]
Table 8 illustrates the results of an example antimicrobial agent susceptibility test of the current application versus a traditional culture-based antimicrobial agent susceptibility test for a low level positive with <10,000 cells/mL in the original specimen. These specimens were tested with direct PCR (e.g., no extraction DNA purification step prior to PCR) after 16 hours of incubation. As in Tables 1, 2, 3, 5, and 7, the results of the test are similar to the traditional test. […]

Test [3] concerns P. aeruginosa. Put plainly: Molecular phenotypic antimicrobial susceptibility test with direct PCR (no extraction DNA purification step). The test is classed as cell-based, Pseudomonas aeruginosa. On the procedure: (§1) Detection of Molecular Phenotypic Antimicrobial Susceptibility. Disclosed herein are the methods for the detection of phenotypic antimicrobial susceptibility via molecular methods. The present invention describes how a specimen 100 with a known microbial load is incubated and then exposed to a panel of antimicrobial agents to determine sensitivity (prevention of growth) or resistance (allowance of growth) to the specific antimicrobial agents tested utilizing molecular methods.
Sample Collection. Specimens 100 are collected from patients using sterile collection processes that are employed in routine clinical care. Specimens are transported to the testing facility in boric acid preservative. Specimens 100 are subsequently divided into a first sample 104 and a second sample 108.
Preparation of the Specimens for Testing. The specimens 100 are put through a pathogen identification process using PCR technology (e.g., using the first sample 104). The process for pathogen isolation includes steps of harvesting the pathogen (e.g., via centrifugation), isolating pathogen DNA via a DNA isolation and/or purification kit, and performing PCR on the pathogen DNA via PCR components (e.g., primers, enzymes, buffers) as would be known to the skilled artisan. Simultaneously, an additional aliquot of the same specimen (e.g., the second sample 108) is placed with liquid culture media and incubated for 4-6 hours. This aliquot is used for antimicrobial susceptibility testing if indicated based on the pathogen detection results. After pathogen identification is completed and if more than 10,000 cells/mL of bacteria (e.g., eligible bacteria) are detected in the source specimen, the second sample 108 then enters the antimicrobial susceptibility phase of testing. Specimens 100 with lower pathogen loads could also be utilized in the antibiotic susceptibility phase of testing with or without a longer incubation period.
(§2) Preparation of Antimicrobial Susceptibility Testing Plates. Antimicrobial solutions are prepared at known concentrations. The specific antimicrobials and their concentrations are selected based on the pathogen of interest and the described antimicrobial resistance breakpoints for that specimen pathogen and antimicrobial combination. These antimicrobials have been selected based on those commonly utilized by healthcare providers in routine clinical care for the specific type of suspected infection. The number and types of antimicrobials utilized can be customized based on the infection source, pathogen detected, patient-specific factors such as allergies or other health conditions (e.g., chronic kidney disease or concurrent medication use), or healthcare provider preferences such as antimicrobial availability or cost.
The antimicrobial solutions are prepared in liquid culture media (such as Muller Hinton Broth) to achieve the desired antimicrobial concentration and are then stored at −80° C. until use. For a given specimen, each antimicrobial is tested at a single or multiple antimicrobial concentration(s) which is its established breakpoints for sensitivity. The antimicrobial solutions are prepared and plated out for each specific pathogen. This allows ease of use on the day of testing after defrosting the plate 112. Table 1, which illustrates the results of molecular phenotypic antimicrobial susceptibility testing when more than one organism is present in the source specimen, provides an example of an antimicrobial plate 112 prepared for this purpose. Of note, control wells containing only culture media are present on all plates 112. This allows for evaluation of pathogen load when no antimicrobial is present.
Specimen Exposure to Antimicrobial Agents. The 1 mL aliquot of the specimen 100 previously mixed with culture media and incubated is obtained. Using optical density measurements as a guide, the specimen 100 is diluted to 0.5 McFarland. […]

Test [4] relates to Escherichia coli. The test is described as follows: Molecular phenotypic antimicrobial susceptibility test (extraction or DNA purification prior to PCR). It is filed as cell-based. On the procedure: as §1
Sample Collection. Specimens 100 are collected from patients using sterile collection processes that are employed in routine clinical care. Specimens are transported to the testing facility in boric acid preservative.
Preparation of the Specimens for Testing. […] The process for pathogen isolation includes steps of harvesting the pathogen (e.g., via centrifugation), isolating pathogen DNA via a DNA isolation and/or purification kit, and performing PCR on the pathogen DNA via PCR components (e.g., primers, enzymes, buffers) as would be known to the skilled artisan. […] This aliquot is used for antimicrobial susceptibility testing if indicated based on the pathogen detection results. […] Specimens 100 with lower pathogen loads could also be utilized in the antibiotic susceptibility phase of testing with or without a longer incubation period.
as §2
The antimicrobial solutions are prepared in liquid culture media (such as Muller Hinton Broth) to achieve the desired antimicrobial concentration and are then stored at −80° C. until use. For a given specimen, each antimicrobial is tested at a single or multiple antimicrobial concentration(s) which is its established breakpoints for sensitivity. The antimicrobial solutions are prepared and plated out for each specific pathogen. […] This allows for evaluation of pathogen load when no antimicrobial is present.
Specimen Exposure to Antimicrobial Agents. The 1 mL aliquot of the specimen 100 previously mixed with culture media and incubated is obtained. Using optical density measurements as a guide, the specimen 100 is diluted to 0.5 McFarland.
Antimicrobial exposure plates are typically placed into an incubator for 12-16 hours.
Nucleic Acid Amplification of Antimicrobial Agent Exposed Pathogens. The antimicrobial exposure plate is removed after the period of incubation. The specimen then undergoes a purification or lysis step. For example, the specimen may undergo a purification step (e.g., magnetic bead-based or other separation protocol to isolate genetic material). In another example, the specimen may undergo a cell lysis step. For example, buffer (e.g., lysis buffer) may be added and incubated in the thermal cycler for preparation for direct PCR. Next, the specimen may undergo a polymerase chain reaction (PCR) testing protocol, whereby a semi-quantitative PCR method is utilized. This may be completed either with or without a specific extraction protocol step. The pathogens can be individually targeted and detected, or a universal genetic sequence can be utilized to detect the antimicrobial susceptibility of the specimen as a whole.

In the case of `CC(C)(O/N=C(\C(=O)N[C@@H]1C(=O)N2C(C(=O)[O-])=C(C[n+]3ccccc3)CS[C@H]12)c1csc(N)n1)C(=O)O` [Ceftazidime], the “Traditional Culture Result” value in the test with P. aeruginosa [1], in the test with Escherichia coli [2] (E. coli isolate 1 (Table 3)), in the test with Escherichia coli [2] (E. coli isolate 2 (Table 3)) and with Escherichia coli [2] (E. coli isolate 3 (Table 3)) was “Sensitive” throughout. Further, the “Ct at Sensitive Breakpoint” value with P. aeruginosa [3] (P. aeruginosa isolate MRSN1938, Ct at control (average) 12.031) is 24.596; in the test on Escherichia coli [4] (E. coli isolate 1, Ct at control (average) 21.238), 25.605; in the test with Escherichia coli [4] (E. coli isolate 2, Ct at control (average) 21.270) it was 22.508; in the test on Escherichia coli [4] (E. coli isolate 3, Ct at control (average) 22.0995), 22.583. Besides, the “Molecular Antimicrobial Susceptibility Result” value was “Sensitive (Antimicrobial wells with pathogen load detected below the control wells (typically >2 cycle thresholds later) may be reported as Sensitive)” in the test on P. aeruginosa [3] (P. aeruginosa isolate MRSN1938, at sensitive breakpoint); “Sensitive (Antimicrobial wells with pathogen load detected below the control wells (typically >2 cycle thresholds later) may be reported as Sensitive)” in the test on Escherichia coli [4] (E. coli isolate 1, at sensitive breakpoint); “Sensitive (Antimicrobial wells with pathogen load detected below the control wells (typically >2 cycle thresholds later) may be reported as Sensitive)” in the test with Escherichia coli [4] (E. coli isolate 2, at sensitive breakpoint); “Resistant” in the test on Escherichia coli [4] (E. coli isolate 3, at sensitive breakpoint).

The record behind these values is patent US20250290117A1, “MOLECULAR PHENOTYPIC ANTIMICROBIAL SUSCEPTIBILITY TESTING” (priority 2024, published 2025).
